Assay results reported in patent US20170020838A1, “TREATMENT FOR RESPIRATORY DISEASE” (MUCOKINETICA LIMITED, priority 2014, published 2017).

Target: T1, Amiloride-sensitive sodium channels (ENaC) (Sus scrofa, UniProt A0A480QJ99+F1RPF1+I3LGX7)
T1 construct: placed inside the trachea in contact with the tracheal epithelium; from tissue; host or cells: ex vivo pig trachea (tracheal epithelium)
T1 sequence (A0A480QJ99 1-650): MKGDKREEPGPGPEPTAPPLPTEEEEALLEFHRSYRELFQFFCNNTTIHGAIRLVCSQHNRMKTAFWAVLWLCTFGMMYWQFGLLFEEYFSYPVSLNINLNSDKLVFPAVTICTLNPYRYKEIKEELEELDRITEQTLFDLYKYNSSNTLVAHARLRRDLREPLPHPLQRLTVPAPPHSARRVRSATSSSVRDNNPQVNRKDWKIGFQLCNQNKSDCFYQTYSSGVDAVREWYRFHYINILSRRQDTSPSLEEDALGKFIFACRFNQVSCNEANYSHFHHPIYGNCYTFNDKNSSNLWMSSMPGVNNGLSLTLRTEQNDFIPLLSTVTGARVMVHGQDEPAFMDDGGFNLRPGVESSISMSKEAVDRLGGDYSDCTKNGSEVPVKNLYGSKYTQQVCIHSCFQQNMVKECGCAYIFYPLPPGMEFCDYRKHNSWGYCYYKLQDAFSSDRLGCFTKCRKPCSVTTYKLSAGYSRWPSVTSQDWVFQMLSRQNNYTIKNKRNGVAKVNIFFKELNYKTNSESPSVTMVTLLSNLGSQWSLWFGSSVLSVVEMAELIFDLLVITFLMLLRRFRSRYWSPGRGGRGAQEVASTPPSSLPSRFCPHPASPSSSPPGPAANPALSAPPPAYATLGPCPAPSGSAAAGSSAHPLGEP
T1 sequence (I3LGX7 1-644): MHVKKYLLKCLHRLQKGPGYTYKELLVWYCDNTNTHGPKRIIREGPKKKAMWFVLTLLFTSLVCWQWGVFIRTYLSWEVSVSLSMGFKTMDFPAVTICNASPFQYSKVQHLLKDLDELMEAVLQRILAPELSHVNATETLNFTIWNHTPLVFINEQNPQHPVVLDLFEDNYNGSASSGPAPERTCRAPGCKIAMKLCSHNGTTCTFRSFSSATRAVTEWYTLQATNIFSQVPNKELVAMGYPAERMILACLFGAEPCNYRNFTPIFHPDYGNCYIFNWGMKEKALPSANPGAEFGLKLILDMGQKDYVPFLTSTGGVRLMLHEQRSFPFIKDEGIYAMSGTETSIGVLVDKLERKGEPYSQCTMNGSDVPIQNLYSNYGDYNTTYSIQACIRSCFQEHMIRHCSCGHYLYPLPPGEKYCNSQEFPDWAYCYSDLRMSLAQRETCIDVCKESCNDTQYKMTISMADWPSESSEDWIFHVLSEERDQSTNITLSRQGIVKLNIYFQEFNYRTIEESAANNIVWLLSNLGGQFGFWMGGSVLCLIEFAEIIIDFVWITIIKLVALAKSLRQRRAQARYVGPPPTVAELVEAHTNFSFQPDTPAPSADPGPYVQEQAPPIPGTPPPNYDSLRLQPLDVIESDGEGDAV
T1 sequence (F1RPF1 1-652): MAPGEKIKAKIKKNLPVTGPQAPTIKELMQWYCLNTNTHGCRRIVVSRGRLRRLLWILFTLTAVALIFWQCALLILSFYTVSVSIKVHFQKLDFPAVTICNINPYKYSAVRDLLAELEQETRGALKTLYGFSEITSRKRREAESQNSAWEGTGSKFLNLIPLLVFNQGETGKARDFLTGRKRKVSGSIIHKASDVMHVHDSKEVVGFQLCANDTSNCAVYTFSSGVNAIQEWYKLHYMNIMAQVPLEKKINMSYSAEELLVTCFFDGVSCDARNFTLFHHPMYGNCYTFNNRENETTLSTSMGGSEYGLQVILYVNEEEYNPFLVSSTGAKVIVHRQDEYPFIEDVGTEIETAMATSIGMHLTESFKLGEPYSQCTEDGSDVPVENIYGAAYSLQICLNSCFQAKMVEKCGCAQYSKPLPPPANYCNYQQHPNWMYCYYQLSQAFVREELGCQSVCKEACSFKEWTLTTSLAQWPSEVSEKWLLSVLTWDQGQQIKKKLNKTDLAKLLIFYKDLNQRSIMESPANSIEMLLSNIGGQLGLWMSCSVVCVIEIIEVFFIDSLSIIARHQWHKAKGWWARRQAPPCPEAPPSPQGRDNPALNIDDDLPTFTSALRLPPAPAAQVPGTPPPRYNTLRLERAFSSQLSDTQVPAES
Test: Amiloride-sensitive ENaC-dependent tracheal PD, ex vivo pig trachea
Conditions: for baseline tracheal PD during perfusion of the agent / responses to 5 min amiloride perfusion during perfusion of the agent: perfused in BSS: Rx 3.10^−5M alone, 50 mM sodium gluconate, 0.1 mM-UTP; for baseline tracheal PD during perfusion of the agent / responses to 5 min amiloride perfusion during perfusion of the agent / AUC of amiloride-sensitive ENaC-dependent tracheal PD responses, analysis of variance: +50 mM-NaCl, combinations with 10^−5 M Rx; for responses to 5 min amiloride perfusion during perfusion of the agent / AUC of amiloride-sensitive ENaC-dependent tracheal PD responses, analysis of variance: 100 mosM-mannitol; for AUC of amiloride-sensitive ENaC-dependent tracheal PD responses, analysis of variance: AUC normalised to average of first four peaks, Rx 3.10^−5M alone
Method: (§1) FIG. 1 A description of the equipment used to measure electrical potential difference (PD) across the pig trachea ex vivo (FIG. 1A). Pig tracheas placed on a sloping radiator heated at 37° C. A reference electrode consisting of silicone tubing filled with Signa electrode cream was attached to the outer surface of the trachea. A double lumen recording electrode (FIG. 1B) was placed inside the trachea in contact with the tracheal epithelium. The inner tubing of the recording electrode was used to perfuse onto the surface of the trachea buffer solutions and buffer solutions containing drugs and agents. The outer part of the recording electrode was also filled with Signa electrode cream. The ends of the electrodes not in contact with the trachea were placed in Ringer buffer solution. Electrical contact to calomel half-cells in 3M-KCl solution was achieved by silicone tubing bridges filled with Signa electrode cream. The calomel half-cells were connected to a high impedance digital electrometer (Agilent U1252A). Digital PD values were recorded continuously every 1 second for the duration each study and were filed onto a PC.
as §1, with “Pig” for “FIG. 1 A description of the equipment used to measure electrical potential difference (PD) across the pig trachea ex vivo (FIG. 1A). Pig”, “were obtained from” for “placed on”, “local abattoir or Veterinary University. The lumen of each trachea was cleaned by gentle irrigation with BSS.” for “sloping radiator heated at 37° C.”, “trachea according to the diagram in FIG. 1A. Pig tracheas were placed on a sloping radiator heated at 37° C.” for “trachea.”, “duration of” for “duration”
During each study the amiloride-sensitive, ENaC-dependent component of tracheal PD was determined periodically by perfusion (at 1 ml/min) of buffer solution containing 3×10^−6 M amiloride onto the epithelial surface of the trachea for 5 min, followed by washout for 10 minutes with buffer solution without amiloride. Each response to amiloride was quantified by measuring the area under the curve (AUC) response (mV.min) to amiloride perfusion and washout.

SMILES | baseline tracheal PD during perfusion of the agent | responses to 5 min amiloride perfusion during perfusion of the agent | AUC of amiloride-sensitive ENaC-dependent tracheal PD responses, analysis of variance | responses to 5 min amiloride perfusion on final perfusion with BSS without the agent (washout 60 min with BSS) | down-regulation of amiloride-sensitive ENaC-dependent tracheal PD responses, dose series (doses 3.10^−8 M, 10^−7 M, 3.10^−7 M, 10^−6 M, 3.10^−6 M, and 10^−5 M, all doses) | time for tracheal PD to reach plateau depolarisation following initiation of amiloride perfusion (3×10^−6 M amiloride perfused 5 min in BSS at 1 ml/min, mean of 23 tracheas) | time for tracheal PD to return to baseline after initiation of washout (after 5 min perfusion of amiloride, washout with BSS)
O=c1ccn([C@@H]2O[C@H](COP(=O)(O)OP(=O)(O)OP(=O)(O)O)[C@@H](O)[C@H]2O)c(=O)[nH]1 [UTP, uridine 5′-triphosphate] | partially depolarise | decrease | – | – | – | – | –
OC[C@@H](O)[C@@H](O)[C@H](O)[C@H](O)CO [hyperosmotic mannitol, mannitol] | – | decrease | significantly reduced | recover | – | – | –
O=C([O-])[C@H](O)[C@@H](O)[C@H](O)[C@H](O)CO.[Na+] [hyperosmotic sodium gluconate, sodium gluconate] | partially depolarise | decrease | – | – | – | – | –
N=C(N)Nc1ccc(C(=O)Oc2ccc3cc(C(=N)N)ccc3c2)cc1 [6-amidino-2-napthyl 4-guanidinobenzoate] | depolarise | decrease | significant reduction (p<0.0001) | – | Significant down-regulation | – | –
N=C(N)NC(=O)c1nc(Cl)c(N)nc1N [amiloride] | – | – | – | – | – | about 2 min | approximately 5 min
